Like-named read-outs stand apart in the source and are kept apart here.
How the values were obtained:
Format in all cases: in vivo
[1] = tested on: Amaranthus tamariscinus (common waterhemp, AMATA), PPO resistant biotype 8 (w.12); assay: Greenhouse herbicidal activity test, third experiment, weed w.12; settings: use rate 4 g/ha; PPO resistant biotype 8 common waterhemp; scale 0 to 100
[2] = tested on: Amaranthus tamariscinus (common waterhemp, AMATA), PPO resistant biotype 7 (w.11); assay: Greenhouse herbicidal activity test, third experiment, weed w.11; settings: use rate 4 g/ha; PPO resistant biotype 7 common waterhemp; scale 0 to 100
[3] = tested on: Amaranthus tamariscinus (common waterhemp, AMATA), sensitive biotype (w.10); assay: Greenhouse herbicidal activity test, third experiment, weed w.10; settings: scale 0 to 100
[4] = tested on: Amaranthus tuberculatus (tall waterhemp, AMATU), sensitive biotype (w.7); assay: Greenhouse herbicidal activity test, another (second) experiment, weed w.7; settings: scale 0 to 100
[5] = tested on: Ambrosia elatior (common ragweed, AMBEL), sensitive biotype (w.4); settings: scale 0 to 100
[6] = tested on: Amaranthus tamariscinus (common waterhemp, AMATA), sensitive biotype (w.1); settings: scale 0 to 100

SMILES | Weed control (%) w.12 [1] | Weed control (%) w.11 [2] | Weed control (%) w.10 ([3]; use rate 2 g/ha) | Weed control (%) w.10 ([3]; use rate 4 g/ha) | Weed control (%) 7 ([4]; use rate 1 g/ha) | Weed control (%) 7 ([4]; use rate 2 g/ha) | Weed control (%) w.4 ([5]; use rate 1 g/ha) | Weed control (%) w.4 ([5]; use rate 2 g/ha) | Weed control (%) w.1 ([6]; use rate 1 g/ha) | Weed control (%) w.1 ([6]; use rate 2 g/ha)
C#CCOc1cc(-n2nc3n(c2=O)CCCC3)c(Cl)cc1Cl [azafenidin, reference compound] | 72% | 73% | 95% | 98% | – | – | – | – | – | –
CCOC(=O)COc1ncccc1Oc1cc(-n2c(=O)cc(C(F)(F)F)n(C)c2=O)c(F)cc1Cl [compound (I).1, ethyl [3-[2-chloro-4-fluoro-5-(1-methyl-6-trifluoromethyl-2,4-dioxo-1,2,3,4-tetrahydropyrimidin-3-yl)phenoxy]-2-pyridyloxy]acetate] | – | – | – | – | 100% | 100% | 100% | 100% | 100% | 100%
CCOC(=O)COc1ccccc1Oc1cc(-n2c(=O)cc(C(F)(F)F)n(C)c2=O)c(F)cc1Cl [compound (I).4] | 99% | 100% | 100% | 100% | – | – | – | – | – | –
C#CCN1C(=O)COc2cc(F)c(N3C(=O)C4=C(CCCC4)C3=O)cc21 [flumioxazin, reference compound] | – | – | – | – | – | – | 50% | 65% | 90% | 95%

Source: patent US20190069553A1, “METHOD FOR CONTROLLING PPO RESISTANT WEEDS” (BASF SE, priority 2016, published 2019)
